Experimental data taken from patent publication US20020035061A1, “COMPOSITIONS AND METHODS FOR TREATING INFECTIONS USING CATIONIC PEPTIDES ALONE OR IN COMBINATION WITH ANTIBIOTICS” (priority 1996, published 2002).
“And” between values parts separate entries of the source, which are not always exact repeats. Equal values may be shown once. Read-outs that look alike come from different tables or passages of the source.

What was measured:
[1] = test system: MSSA (Smith, ATCC # 19640); assay: In vivo efficacy, MSSA infection; parameters: species or system S. aureus; details: formulation D; for % Survival: 60 min post-infection, end of eight day observation
P. aeruginosa = format: cell-based; details: for Peptide MIC values: agarose dilution
H. influenzae = assay: Agarose dilution assay (MIC); format: cell-based
S. epidermidis = format: cell-based
E. coli = format: cell-based; details: for Peptide MIC values: agarose dilution
K. pneumoniae = format: cell-based
S. pneumoniae = assay: Agarose dilution assay (MIC); format: cell-based; details: for Peptide MIC values: agarose dilution
[2] = test system: microorganisms with acquired resistance; assay: microbe, parasite or virus in culture; format: cell-based; details: for Peptide MIC: combination with Mupirocin, in µg/mL
E. faecalis = format: cell-based; details: for MIC, Peptide: unmodified parent peptide
A. calcoaceticus = format: cell-based
E. faecium = format: cell-based
S. aureus = format: cell-based; details: for Peptide MIC values: agarose dilution; for MIC, Peptide: unmodified parent peptide
E. cloacae = format: cell-based
S. marcescens = format: cell-based
[3] = test system: inherently resistant microorganisms; assay: microbe, parasite or virus in culture; format: cell-based
[4] = S. maltophilia 2, Piperacillin section
[5] = peptide + Piperacillin, S. maltophilia 2

ILKKWPWWPWRRK [MBI 11CN]
4 µg/mL: Peptide MIC values (E. coli; E. coli NCTC 10418) | Tobramycin MIC + Peptide ([2]; A. baumannii ABI001) | Tobramycin MIC + Peptide ([2]; E. coli EC0006) | Piperacillin MIC + Peptide ([2]; P. aeruginosa 22) | Peptide MIC + Piperacillin ([2]; P. aeruginosa 23) | Tobramycin MIC + Peptide ([2]; P. aeruginosa PA032) | Peptide MIC values (S. aureus; S. aureus MRSA17)
0%: % Survival ([1]; 12 mg/kg ip)
1.00: FIC ([2]; peptide + Piperacillin, A. calcoaceticus 3)
0.52: FIC ([2]; peptide + Piperacillin, P. aeruginosa 22)
32 µg/mL: Peptide MIC + Piperacillin ([2]; A. calcoaceticus 3) | Peptide MIC + Piperacillin ([2]; P. aeruginosa 22) | Peptide MIC + Piperacillin ([2]; S. maltophilia 2) | MIC (E. faecalis; E. faecalis EFS001)
2 µg/mL: MIC (S. epidermidis; S. epidermidis SE001) | Tobramycin MIC + Peptide ([2]; S. maltophilia SMA029) | Tobramycin MIC + Peptide ([2]; S. maltophilia SMA030) | MIC (S. aureus; S. aureus SA003) | Peptide MIC values (S. aureus; S. aureus MRSA9)
0.27: FIC ([2]; peptide + Tobramycin, S. maltophilia SMA029) | FIC ([2]; peptide + Tobramycin, S. maltophilia SMA030)
128 µg/mL: MIC (K. pneumoniae; K. pneumoniae KP002) | Peptide MIC Alone ([2]; P. aeruginosa 23, Piperacillin section) | MIC (A. calcoaceticus; A. calcoaceticus AC001)
0.53: FIC ([2]; peptide + Piperacillin, P. aeruginosa 23) | FIC ([2]; peptide + Tobramycin, E. coli EC0006)
>128 µg/mL: MIC (P. aeruginosa; P. aeruginosa PA003) | Peptide MIC values (P. aeruginosa; P. aeruginosa ATCC 27853) | Peptide MIC values (P. aeruginosa; P. aeruginosa NCTC 10662) | MIC (H. influenzae; H. influenzae HIN001) | MIC (S. pneumoniae; S. pneumoniae SBSPN2) | Peptide MIC values (S. pneumoniae; S. pneumoniae 406LE8) | Peptide MIC values (S. pneumoniae; S. pneumoniae 60120) | Peptide MIC Alone ([2]; P. aeruginosa PA032, Tobramycin section) | Peptide MIC Alone ([2]; S. maltophilia SMA029, Tobramycin section) | Peptide MIC Alone ([2]; S. maltophilia SMA030, Tobramycin section) | MIC (S. marcescens; S. marcescens SBSM1) | MIC (S. marcescens; S. marcescens SMS003) | Peptide MIC values (S. marcescens; agarose dilution, S. marcescens SM82)
0.75: FIC [2, 5]
16 µg/mL: Peptide MIC values (E. coli; E. coli ATCC 25922) | Peptide MIC + Tobramycin ([2]; A. baumannii ABI001) | Piperacillin MIC + Peptide ([2]; A. calcoaceticus 3) | Piperacillin MIC + Peptide ([2]; S. maltophilia 2) | Peptide MIC values (S. aureus; S. aureus MRSA13)
little or no activity: activity ([1]; mice, ip, dose levels lower than 35.7 mg/kg)
0.25 µg/mL: Peptide MIC + Tobramycin ([2]; E. coli EC0006)
64 µg/mL: Peptide MIC values (S. pneumoniae; S. pneumoniae ATCC 49619) | Peptide MIC Alone ([2]; A. baumannii ABI001, Tobramycin section) | Peptide MIC Alone ([2]; A. calcoaceticus 3, Piperacillin section) | Peptide MIC Alone ([2]; P. aeruginosa 22, Piperacillin section) | Piperacillin MIC + Peptide ([2]; P. aeruginosa 23) | Peptide MIC + Tobramycin ([2]; P. aeruginosa PA032) | Peptide MIC Alone [2, 4] | Peptide MIC + Tobramycin ([2]; S. maltophilia SMA029) | Peptide MIC + Tobramycin ([2]; S. maltophilia SMA030)
0.50: FIC ([2]; peptide + Tobramycin, A. baumannii ABI001) | FIC ([2]; peptide + Tobramycin, P. aeruginosa PA032)
16: Peptide MIC ([2]; S. aureus)
100%: mice rescued from MSSA infection ([1]; mice, ip 60 min post-infection, 35.7 mg/kg)
8 µg/mL: MIC (E. coli; E. coli ECO002) | Peptide MIC Alone ([2]; E. coli EC0006, Tobramycin section) | MIC (E. faecium; E. faecium EFM001) | Peptide MIC values (E. faecium; agarose dilution)
50%: % Survival ([1]; 24 mg/kg ip)
>64 µg/mL: MIC (E. cloacae; E. cloacae ECL007)
8: Peptide MIC ([2]; E. faecium)

ILRWPWWPWRRK [MBI 11B7CN]
4 µg/mL: MIC, Peptide (E. coli; E. coli ECO005, unmodified parent peptide) | Peptide MIC + Piperacillin ([2]; S. marcescens 1) | MIC (E. faecalis; E. faecalis strain EFS004) | Peptide MIC Alone ([3]; S. aureus MRSA, Piperacillin section) | MIC (E. faecium; E. faecium strain EFM001) | MIC, Peptide (S. aureus; S. aureus SA011)
4 µg/mL and 8 µg/mL: MIC, Peptide (K. pneumoniae; K. pneumoniae KP001, unmodified parent peptide)
60%: % Survival ([1]; 24 mg/kg ip)
16 µg/mL: Peptide MIC Alone ([2]; A. baumannii ABI005, Ceftriaxone section) | Piperacillin MIC + Peptide ([2]; S. maltophilia 2) | MIC, Peptide (S. aureus; S. aureus SA018)
0.50: FIC ([2]; peptide + Ceftriaxone, A. baumannii ABI002) | FIC ([3]; peptide + Ceftriaxone, P. aeruginosa) | FIC ([3]; peptide + Piperacillin, S. aureus MRSA)
0.13: FIC ([2]; peptide + Piperacillin, H. influenzae 1)
1 µg/mL: Peptide MIC + Ceftriaxone ([2]; A. baumannii ABI005) | Peptide MIC + Piperacillin ([2]; H. influenzae 1) | MIC, Peptide (S. aureus; S. aureus SA010) | MIC, Peptide (S. aureus; S. aureus SA025) | MIC, Peptide (S. aureus; S. aureus SA093)
64 µg/mL: Peptide MIC + Ceftriaxone ([3]; P. aeruginosa)
128 µg/mL: MIC, Peptide (P. aeruginosa; P. aeruginosa PA004, unmodified parent peptide) | MIC (P. aeruginosa; P. aeruginosa strain PA004) | Peptide MIC Alone [2, 4] | Peptide MIC Alone ([3]; P. aeruginosa, Ceftriaxone section) | MIC, Peptide (E. cloacae; E. cloacae ECL007, unmodified parent peptide)
0.27: FIC ([2]; peptide + Piperacillin, S. marcescens 1)
0.56: FIC ([2]; peptide + Ceftriaxone, A. baumannii ABI005)
2 µg/mL: MIC, Peptide (S. epidermidis; S. epidermidis SE010, unmodified parent peptide) | MIC (S. epidermidis; S. epidermidis strain SE003) | Peptide MIC + Piperacillin ([3]; S. aureus MRSA) | MIC, Peptide (A. calcoaceticus; A. calcoaceticus AC002, unmodified parent peptide) | MIC, Peptide (S. aureus; S. aureus SA014) | MIC (S. aureus; S. aureus strain SA009)
0%: % Survival ([1]; 12 mg/kg ip)
1.00: FIC [2, 5]
>128 µg/mL: MIC (H. influenzae; H. influenzae strain HIN002) | MIC (S. pneumoniae; S. pneumoniae strain SBSPN3) | Peptide MIC Alone ([2]; H. influenzae 1, Piperacillin section) | Peptide MIC Alone ([2]; S. marcescens 1, Piperacillin section) | MIC, Peptide (S. marcescens; S. marcescens SMS003, unmodified parent peptide) | MIC (S. marcescens; S. marcescens strain SBSM1)
10%: % Survival ([1]; 18 mg/kg ip)
32 µg/mL: MIC (K. pneumoniae; K. pneumoniae strain KP0011) | Peptide MIC Alone ([2]; A. baumannii ABI002, Ceftriaxone section) | Peptide MIC Alone ([3]; S. maltophilia, Ceftriaxone section) | MIC (A. calcoaceticus; A. calcoaceticus strain AC003) | MIC (E. cloacae; E. cloacae strain ECL0009)
8 µg/mL: MIC (E. coli; E. coli strain ECO002) | Ceftriaxone MIC + Peptide ([2]; A. baumannii ABI002) | Peptide MIC + Ceftriaxone ([2]; A. baumannii ABI002) | Ceftriaxone MIC + Peptide ([2]; A. baumannii ABI005) | Piperacillin MIC + Peptide ([2]; H. influenzae 1) | Peptide MIC + Piperacillin ([2]; S. maltophilia 2) | Piperacillin MIC + Peptide ([2]; S. marcescens 1) | MIC, Peptide (E. faecalis; E. faecalis EFS004)
2 µg/mL and 4 µg/mL: MIC, Peptide (E. faecalis; E. faecalis EFS008)
